Our source for the IC50 values is patent US20250171459A1, “2-METHYL-4',5'-DIHYDROSPIRO[PIPERIDINE-4,7'-THIENO[2,3-C]PYRAN] DERIVATIVES AS INHIBITORS OF APOL1 AND METHODS OF USING SAME” (Vertex Pharmaceuticals Incorporated, priority 2022, published 2025).

This assay addresses T1, APOL1 (Homo sapiens, UniProt O14791).
T1 sequence (O14791 1-398 S342G/I384M): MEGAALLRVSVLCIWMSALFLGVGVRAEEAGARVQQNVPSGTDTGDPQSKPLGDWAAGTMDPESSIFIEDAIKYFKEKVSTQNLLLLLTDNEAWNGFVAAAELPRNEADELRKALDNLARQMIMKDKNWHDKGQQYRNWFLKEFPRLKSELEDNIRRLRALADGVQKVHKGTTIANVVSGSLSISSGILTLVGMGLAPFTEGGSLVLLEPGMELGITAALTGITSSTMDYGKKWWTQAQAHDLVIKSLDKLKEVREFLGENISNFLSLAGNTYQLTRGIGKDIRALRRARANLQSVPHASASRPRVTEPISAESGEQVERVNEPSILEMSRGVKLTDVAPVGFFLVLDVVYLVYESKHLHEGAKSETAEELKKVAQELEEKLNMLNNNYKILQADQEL
Nature of the assay: MultiTox-Fluor Multiplex Cytotoxicity Assay in tet-inducible APOL1 T-REx-HEK293 cells (cell rescue, ratio of dead to live cells). It counts as cell-based. The conditions noted are these: tet-inducible transgenic APOL1 T-REx-HEK293 cell lines, 50 ng/mL tet, 24 hours; read-out: IP50 (i.e., IC50 for cell proliferation). The procedure, abridged: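 T-REx-HEK293 cells with tet-inducible APOL1 were treated with compound (10 μM top, 10-point 3-fold dilution, duplicate) plus 50 ng/mL tetracycline for 24 h at 37° C, in DMEM with 2% tet-free FBS. MultiTox-Fluor protease signals gave a dead/live ratio, normalized to no tet (100% viability) and tet alone (0%).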

Structures are written as SMILES. pIC50: −log10 of the molar value.

Take `CNC(=O)[C@H](O)Cn1cc(CN2CC[C@]3(C[C@@H]2C)OCCc2c3sc(C(F)(F)F)c2CO)cn1` [Compound 986, (2R)-2-hydroxy-3-[4-[[(2′S, 7R)-3-(hydroxymethyl)-2′-methyl-2-(trifluoromethyl)spiro[4,5-dihydrothieno[2,3-c]pyran-7,4′-piperidine]-1′-yl]methyl]pyrazol-1-yl]-N-methyl-propanamide]: the pIC50 was more than 7.00.

As to `C[C@H]1C[C@@]2(CCN1Cc1cnn(C[C@@H](O)C(=O)N(C)C)c1)OCCc1c2sc(C(F)(F)F)c1CO` [Compound 987, (2R)-2-hydroxy-3-[4-[[(2′S, 7R)-3-(hydroxymethyl)-2′-methyl-2-(trifluoromethyl)spiro[4,5-dihydrothieno[2,3-c]pyran-7,4′-piperidine]-1′-yl]methyl]pyrazol-1-yl]-N,N-dimethyl-propanamide], the pIC50 is more than 7.00.

With `CCOC(=O)C(C)(O)Cn1cc(CN2CC[C@]3(C[C@@H]2C)OCCc2c3sc(C(F)(F)F)c2CO)cn1` (stereo partly drawn) [Compound 988, Ethyl 2-hydroxy-3-[4-[[(2′S, 7R)-3-(hydroxymethyl)-2′-methyl-2-(trifluoromethyl)spiro[4,5-dihydrothieno[2,3-c]pyran-7,4′-piperidine]-1′-yl]methyl]pyrazol-1-yl]-2-methyl-propanoate], the pIC50 is more than 7.00.

In the case of `C[C@H]1C[C@@]2(CCN1Cc1cnn(CC(C)(O)C(N)=O)c1)OCCc1c2sc(C(F)(F)F)c1CO` (stereo partly drawn) [Compound 989, 2-Hydroxy-3-[4-[[(2′S, 7R)-3-(hydroxymethyl)-2′-methyl-2-(trifluoromethyl)spiro[4,5-dihydrothieno[2,3-c]pyran-7,4′-piperidine]-1′-yl]methyl]pyrazol-1-yl]-2-methyl-propanamide], the pIC50 was more than 7.00.

With `CNC(=O)C(C)(O)Cn1cc(CN2CC[C@]3(C[C@@H]2C)OCCc2c3sc(C(F)(F)F)c2CO)cn1` (stereo partly drawn) [Compound 990, 2-Hydroxy-3-[4-[[(2′S, 7R)-3-(hydroxymethyl)-2′-methyl-2-(trifluoromethyl)spiro[4,5-dihydrothieno[2,3-c]pyran-7,4′-piperidine]-1′-yl]methyl]pyrazol-1-yl]-N,2-dimethyl-propanamide], the pIC50 was more than 7.00.

In the case of `C[C@H]1C[C@@]2(CCN1Cc1cnn(CC(C)(O)C(=O)NC3CC3)c1)OCCc1c2sc(C(F)(F)F)c1CO` (stereo partly drawn) [Compound 991, N-cyclopropyl-2-hydroxy-3-[4-[[(2′S, 7R)-3-(hydroxymethyl)-2′-methyl-2-(trifluoromethyl)spiro[4,5-dihydrothieno[2,3-c]pyran-7,4′-piperidine]-1′-yl]methyl]pyrazol-1-yl]-2-methyl-propanamide], the pIC50 is more than 7.00.

For `C[C@H]1C[C@@]2(CCN1Cc1cnn(C[C@@H](O)C(N)=O)c1)OC[C@@H](O)c1cc(C(F)(F)F)sc12` [Compound 992, (2R)-2-hydroxy-3-[4-[[(2′S,4S,7R)-4-hydroxy-2′-methyl-2-(trifluoromethyl)spiro[4,5-dihydrothieno[2,3-c]pyran-7,4′-piperidine]-1′-yl]methyl]pyrazol-1-yl]propanamide], the pIC50 is more than 7.00.

Consider `CNC(=O)[C@H](O)Cn1cc(CN2CC[C@]3(C[C@@H]2C)OC[C@@H](O)c2cc(C(F)(F)F)sc23)cn1` [Compound 993], for which the pIC50 was 6.30 to 7.00.

As for `C[C@H]1C[C@@]2(CCN1Cc1cnn(C[C@@H](O)C(=O)N(C)C)c1)OC[C@@H](O)c1cc(C(F)(F)F)sc12` [Compound 994], the pIC50 is more than 7.00.

Consider `C[C@H]1C[C@@]2(CCN1Cc1cnn(C[C@@H](O)C(=O)NC3CC3)c1)OC[C@@H](O)c1cc(C(F)(F)F)sc12` [Compound 995], for which the pIC50 is more than 7.00.

`C[C@H]1C[C@@]2(CCN1Cc1cnn(C[C@H](O)C(N)=O)c1)OC[C@@H](O)c1cc(C(F)(F)F)sc12` [Compound 996]: the pIC50 was more than 7.00.

Regarding `CNC(=O)[C@@H](O)Cn1cc(CN2CC[C@]3(C[C@@H]2C)OC[C@@H](O)c2cc(C(F)(F)F)sc23)cn1` [Compound 997], the pIC50 is more than 7.00.

Turning to `C[C@H]1C[C@@]2(CCN1Cc1cnn(C[C@H](O)C(=O)N(C)C)c1)OC[C@@H](O)c1cc(C(F)(F)F)sc12` [Compound 998], the pIC50 is more than 7.00.

Regarding `C[C@H]1C[C@@]2(CCN1Cc1cnn(C[C@H](O)C(=O)NC3CC3)c1)OC[C@@H](O)c1cc(C(F)(F)F)sc12` [Compound 999], the pIC50 is more than 7.00.

On to `C[C@H]1C[C@@]2(CCN1Cc1cn(C(C)(C)CO)nn1)OCCc1c2sc(C(F)(F)F)c1CO` [Compound 1000, 2-[4-[[(2′S, 7R)-3-(hydroxymethyl)-2′-methyl-2-(trifluoromethyl)spiro[4,5-dihydrothieno[2,3-c]pyran-7,4′-piperidine]-1′-yl]methyl]triazol-1-yl]-2-methyl-propan-1-ol], for which the pIC50 was 6.00 to 6.30.

Take `C[C@H]1C[C@@]2(CCN1Cc1cn(CCCS(C)(=O)=O)nn1)OCCc1c2sc(C(F)(F)F)c1CO` [Compound 1001]: the pIC50 is 6.30 to 7.00.

For `CC(O)Cn1cc(CN2CC[C@]3(C[C@@H]2C)OCCc2c3sc(C(F)(F)F)c2CO)nn1` (stereo partly shown) [Compound 1002], the pIC50 was more than 7.00.

As to `C[C@H]1C[C@@]2(CCN1Cc1cn(CC(C)(CO)CO)nn1)OCCc1c2sc(C(F)(F)F)c1CO` [Compound 1003], the pIC50 was more than 7.00.

Consider `C[C@H]1C[C@@]2(CCN1Cc1cn(C3CCOCC3)nn1)OCCc1c2sc(C(F)(F)F)c1CO` [Compound 1004], for which the pIC50 was 6.30 to 7.00.

With `C[C@H]1C[C@@]2(CCN1Cc1cn(CC(O)C(C)(C)O)nn1)OCCc1c2sc(C(F)(F)F)c1CO` (stereo partly shown) [Compound 1005], the pIC50 is more than 7.00.

As for `COC(=O)c1c(C(F)(F)F)sc2c1CCO[C@@]21CCN(Cc2cn(CCS(C)(=O)=O)nn2)[C@@H](C)C1` [Compound 1006, Methyl (2′S,7R)-2′-methyl-1′-[[1-(2-methylsulfonylethyl)triazol-4-yl]methyl]-2-(trifluoromethyl)spiro[4,5-dihydrothieno[2,3-c]pyran-7,4′-piperidine]-3-carboxylate], the pIC50 was 6.30 to 7.00.

As for `CCCNC(=O)c1c(C(F)(F)F)sc2c1CCO[C@@]21CCN(Cc2cn(CCS(C)(=O)=O)nn2)[C@@H](C)C1` [Compound 1007, (2′S,7R)-2′-methyl-1′-[[1-(2-methylsulfonylethyl)triazol-4-yl]methyl]-N-propyl-2-(trifluoromethyl)spiro[4,5-dihydrothieno[2,3-c]pyran-7,4′-piperidine]-3-carboxamide], the pIC50 was 6.00 to 6.30.

Turning to `C[C@H]1C[C@@]2(CCN1Cc1cn(CCS(C)(=O)=O)nn1)OCCc1c2sc(C(F)(F)F)c1C(=O)NCC1CC1` [Compound 1008], the pIC50 was 6.00 to 6.30.

For `C[C@H]1C[C@@]2(CCN1Cc1cn(CCS(C)(=O)=O)nn1)OCCc1c2sc(C(F)(F)F)c1C(=O)NCC(F)F` [Compound 1009], the pIC50 is 6.00 to 6.30.

Consider `C[C@H]1C[C@@]2(CCN1Cc1cn(CCS(C)(=O)=O)nn1)OCCc1c2sc(C(F)(F)F)c1Cl` [Compound 1010, (2′S, 7R)-3-chloro-2′-methyl-1′-[[1-(2-methylsulfonylethyl)triazol-4-yl]methyl]-2-(trifluoromethyl)spiro[4,5-dihydrothieno[2,3-c]pyran-7,4′-piperidine]], for which the pIC50 is more than 7.00.

Consider `C[C@H]1C[C@@]2(CCN1Cc1cnn(CCS(C)(=O)=O)c1)OCCc1cc(C(F)(F)C(F)F)sc12` [Compound 1011, (2′S, 7R)-2′-methyl-1′-[[1-(2-methylsulfonylethyl)pyrazol-4-yl]methyl]-2-(1,1,2,2-tetrafluoroethyl)spiro[4,5-dihydrothieno[2,3-c]pyran-7,4′-piperidine]], for which the pIC50 was more than 7.00.

In the case of `C[C@H]1C[C@@]2(CCN1Cc1cnn(CCS(C)(=O)=O)c1)OCC(O)c1cc(C(F)(F)C(F)F)sc12` (stereo partly drawn) [Compound 1012, (2′S, 7R)-2′-methyl-1′-[[1-(2-methylsulfonylethyl)pyrazol-4-yl]methyl]-2-(1,1,2,2-tetrafluoroethyl)spiro[4,5-dihydrothieno[2,3-c]pyran-7,4′-piperidine]-4-ol], the pIC50 was more than 7.00.

In the case of `[2H]C(OCC)c1cc2c(s1)[C@]1(CCN(Cc3cnn(CCS(C)(=O)=O)c3)[C@@H](C)C1)OCC2` (stereo partly drawn) [Compound 1015, (2′S, 7R)-2-[deuterio(ethoxy)methyl]-2′-methyl-1′-[[1-(2-methylsulfonylethyl)pyrazol-4-yl]methyl]spiro[4,5-dihydrothieno[2,3-c]pyran-7,4′-piperidine]], the pIC50 was more than 7.00.

With `C[C@H]1C[C@@]2(CCN1Cc1cnn(CCS(C)(=O)=O)c1)OCCc1cc(CO)sc12` [Compound 1016, [(2′S,7R)-2′-methyl-1′-[[1-(2-methylsulfonylethyl)pyrazol-4-yl]methyl]spiro[4,5-dihydrothieno[2,3-c]pyran-7,4′-piperidine]-2-yl]methanol], the pIC50 is 6.30 to 7.00.

In the case of `COCc1cc2c(s1)[C@]1(CCN(Cc3cnn(CCS(C)(=O)=O)c3)[C@@H](C)C1)OCC2` [Compound 1017, (2′S, 7R)-2-(methoxymethyl)-2′-methyl-1′-[[1-(2-methylsulfonylethyl)pyrazol-4-yl]methyl]spiro[4,5-dihydrothieno[2,3-c]pyran-7,4′-piperidine]], the pIC50 was 6.30 to 7.00.

Take `C[C@H]1C[C@@]2(CCN1Cc1cnn(C)c1)OCCc1cc(CO)sc12` [Compound 1018, [(2′S, 7R)-2′-methyl-1′-[(1-methylpyrazol-4-yl)methyl]spiro[4,5-dihydrothieno[2,3-c]pyran-7,4′-piperidine]-2-yl]methanol]: the pIC50 was 6.30 to 7.00.
